Drawing on ChEMBL document CHEMBL1154915, “Selection of inhibitory peptides for Aurora-A kinase from a phage-displayed library of helix-loop-helix peptides” (Bioorg Med Chem Lett, 2010), this text covers Activity for 16 compounds.

Active and inactive are the calls of the source. The rule behind the calls is not given here. Residues, ends and D or L forms follow the SMILES beside them.

The assay concerns the target T1, Aurora kinase A (Homo sapiens) (UniProt O14965).
T1 sequence (whole entry): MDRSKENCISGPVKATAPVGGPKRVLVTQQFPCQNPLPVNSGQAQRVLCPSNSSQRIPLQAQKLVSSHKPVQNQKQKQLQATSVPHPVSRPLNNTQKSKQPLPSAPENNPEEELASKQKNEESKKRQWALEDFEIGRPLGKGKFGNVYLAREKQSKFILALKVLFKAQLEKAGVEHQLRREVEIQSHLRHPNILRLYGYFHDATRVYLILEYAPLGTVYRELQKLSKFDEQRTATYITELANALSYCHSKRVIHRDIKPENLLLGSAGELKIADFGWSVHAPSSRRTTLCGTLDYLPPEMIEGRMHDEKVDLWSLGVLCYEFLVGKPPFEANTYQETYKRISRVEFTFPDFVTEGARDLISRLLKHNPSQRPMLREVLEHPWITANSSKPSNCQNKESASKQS
The experiment in a line: Binding affinity to GST-tagged Aurora A after 1 hr by ELISA.
In the case of `CC(C)C[C@H](NC(=O)[C@H](C)NC(=O)[C@H](C)NC(=O)[C@H](CC(C)C)NC(=O)[C@H](CCC(=O)O)NC(=O)[C@H](C)NC(=O)[C@H](CCC(=O)O)NC(=O)[C@H](CC(C)C)NC(=O)[C@H](C)NC(=O)[C@H](C)NC(=O)[C@H](CC(C)C)NC(=O)[C@H](CCC(=O)O)NC(=O)[C@@H](C)N)C(=O)N[C@@H](CCC(=O)O)C(=O)NCC(=O)N[C@@H](CCCNC(=N)N)C(=O)N1CCC[C@H]1C(=O)N[C@@H](Cc1ccccc1)C(=O)N[C@@H](Cc1c[nH]c2ccccc12)C(=O)N[C@@H](CC(C)C)C(=O)N[C@@H](CC(=O)O)C(=O)N[C@@H](CCCNC(=N)N)C(=O)N[C@@H](CC(C)C)C(=O)N[C@@H](CC(C)C)C(=O)NCC(=O)N[C@@H](CCCCN)C(=O)N[C@@H](CC(C)C)C(=O)N[C@@H](C)C(=O)N[C@@H](C)C(=O)N[C@@H](CC(C)C)C(=O)N[C@@H](CCCCN)C(=O)N[C@@H](C)C(=O)N[C@@H](CCCCN)C(=O)N[C@@H](CC(C)C)C(=O)N[C@@H](C)C(=O)N[C@@H](C)C(=O)N[C@@H](CC(C)C)C(=O)N[C@@H](CCCCN)C(=O)N[C@@H](C)C(=O)O`, the outcome was Active.
With `CC(C)C[C@H](NC(=O)[C@H](C)NC(=O)[C@H](C)NC(=O)[C@H](CC(C)C)NC(=O)[C@H](CCC(=O)O)NC(=O)[C@H](C)NC(=O)[C@H](CCC(=O)O)NC(=O)[C@H](CC(C)C)NC(=O)[C@H](C)NC(=O)[C@H](C)NC(=O)[C@H](CC(C)C)NC(=O)[C@H](CCC(=O)O)NC(=O)[C@@H](C)N)C(=O)N[C@@H](CCC(=O)O)C(=O)NCC(=O)N[C@H](C(=O)N[C@@H](CC(C)C)C(=O)N[C@H](C(=O)N[C@H](C(=O)N[C@@H](CO)C(=O)N[C@@H](Cc1c[nH]c2ccccc12)C(=O)N[C@@H](CC(=O)O)C(=O)N1CCC[C@H]1C(=O)N[C@@H](Cc1c[nH]c2ccccc12)C(=O)NCC(=O)N[C@@H](CCCCN)C(=O)N[C@@H](CC(C)C)C(=O)N[C@@H](C)C(=O)N[C@@H](C)C(=O)N[C@@H](CC(C)C)C(=O)N[C@@H](CCCCN)C(=O)N[C@@H](C)C(=O)N[C@@H](CCCCN)C(=O)N[C@@H](CC(C)C)C(=O)N[C@@H](C)C(=O)N[C@@H](C)C(=O)N[C@@H](CC(C)C)C(=O)N[C@@H](CCCCN)C(=O)N[C@@H](C)C(=O)O)C(C)C)C(C)C)[C@H](C)O` the entry was “Active”; with `CC(C)C[C@H](NC(=O)[C@H](C)NC(=O)[C@H](C)NC(=O)[C@H](CC(C)C)NC(=O)[C@H](CCC(=O)O)NC(=O)[C@H](C)NC(=O)[C@H](CCC(=O)O)NC(=O)[C@H](CC(C)C)NC(=O)[C@H](C)NC(=O)[C@H](C)NC(=O)[C@H](CC(C)C)NC(=O)[C@H](CCC(=O)O)NC(=O)[C@H](C)N)C(=O)N[C@@H](CCC(=O)O)C(=O)NCC(=O)N[C@@H](CCCNC(=N)N)C(=O)N[C@@H](CCCCN)C(=O)N[C@@H](CC(=O)O)C(=O)N[C@@H](Cc1ccc(O)cc1)C(=O)N[C@@H](Cc1ccccc1)C(=O)N[C@@H](Cc1cnc[nH]1)C(=O)N[C@@H](CC(C)C)C(=O)N[C@@H](Cc1c[nH]c2ccccc12)C(=O)N[C@@H](Cc1cnc[nH]1)C(=O)N[C@@H](CC(=O)O)C(=O)NCC(=O)N[C@@H](CCCCN)C(=O)N[C@@H](CC(C)C)C(=O)N[C@@H](C)C(=O)N[C@@H](C)C(=O)N[C@@H](CC(C)C)C(=O)N[C@@H](CCCCN)C(=O)N[C@@H](C)C(=O)N[C@H](CCCCN)C(=O)N[C@H](CC(C)C)C(=O)N[C@H](C)C(=O)N[C@H](C)C(=O)N[C@H](CC(C)C)C(=O)N[C@H](CCCCN)C(=O)N[C@H](C)C(=O)O`, “Active”.
As for `CC[C@H](C)[C@H](NC(=O)[C@H](CCCNC(=N)N)NC(=O)CNC(=O)[C@H](CC(C)C)NC(=O)[C@H](CC(C)C)NC(=O)[C@@H]1CCCN1C(=O)[C@H](CO)NC(=O)[C@H](Cc1c[nH]c2ccccc12)NC(=O)CNC(=O)[C@H](CCC(=O)O)NC(=O)[C@H](CC(C)C)NC(=O)[C@H](C)NC(=O)[C@H](C)NC(=O)[C@H](CC(C)C)NC(=O)[C@H](CCC(=O)O)NC(=O)[C@H](C)NC(=O)[C@H](CCC(=O)O)NC(=O)[C@H](CC(C)C)NC(=O)[C@H](C)NC(=O)[C@H](C)NC(=O)[C@H](CC(C)C)NC(=O)[C@H](CCC(=O)O)NC(=O)[C@@H](C)N)C(=O)N[C@@H](CC(C)C)C(=O)NCC(=O)N[C@@H](CCCCN)C(=O)N[C@@H](CC(C)C)C(=O)N[C@@H](C)C(=O)N[C@@H](C)C(=O)N[C@@H](CC(C)C)C(=O)N[C@@H](CCCCN)C(=O)N[C@@H](C)C(=O)N[C@@H](CCCCN)C(=O)N[C@@H](CC(C)C)C(=O)N[C@@H](C)C(=O)N[C@@H](C)C(=O)N[C@@H](CC(C)C)C(=O)N[C@@H](CCCCN)C(=O)N[C@@H](C)C(=O)O`, the outcome was Active.
Under `CC[C@H](C)[C@H](NC(=O)[C@H](CCCNC(=N)N)NC(=O)[C@H](CCCNC(=N)N)NC(=O)[C@H](CO)NC(=O)[C@H](C)NC(=O)CNC(=O)[C@H](CCC(=O)O)NC(=O)[C@H](CC(C)C)NC(=O)[C@H](C)NC(=O)[C@H](C)NC(=O)[C@H](CC(C)C)NC(=O)[C@H](CCC(=O)O)NC(=O)[C@H](C)NC(=O)[C@H](CCC(=O)O)NC(=O)[C@@H]1CCCN1C(=O)[C@H](C)NC(=O)[C@H](C)NC(=O)[C@H](CC(C)C)NC(=O)[C@H](CCC(=O)O)NC(=O)[C@@H](C)N)C(=O)N[C@@H](CS)C(=O)N[C@@H](CS)C(=O)N[C@@H](CO)C(=O)N[C@@H](Cc1c[nH]c2ccccc12)C(=O)NCC(=O)N[C@@H](CCCCN)C(=O)N[C@@H](CC(C)C)C(=O)N[C@@H](C)C(=O)N[C@@H](C)C(=O)N[C@@H](CC(C)C)C(=O)N[C@@H](CCCCN)C(=O)N[C@@H](C)C(=O)N[C@@H](CCCCN)C(=O)N[C@@H](CC(C)C)C(=O)N[C@@H](C)C(=O)N[C@@H](C)C(=O)N[C@@H](CC(C)C)C(=O)N[C@@H](CCCCN)C(=O)N[C@@H](C)C(=O)O` stands “Active”; under `CSCC[C@H](NC(=O)[C@@H]1CCCN1C(=O)[C@H](CCC(N)=O)NC(=O)[C@@H]1CCCN1C(=O)CNC(=O)[C@H](CCC(=O)O)NC(=O)[C@H](CC(C)C)NC(=O)[C@H](C)NC(=O)[C@H](C)NC(=O)[C@H](CC(C)C)NC(=O)[C@H](CCC(=O)O)NC(=O)[C@H](C)NC(=O)[C@H](CCC(=O)O)NC(=O)[C@H](CC(C)C)NC(=O)[C@H](C)NC(=O)[C@H](C)NC(=O)[C@H](CC(C)C)NC(=O)[C@H](CCC(=O)O)NC(=O)[C@@H](C)N)C(=O)N[C@@H](Cc1c[nH]c2ccccc12)C(=O)NCC(=O)N[C@@H](CO)C(=O)N[C@@H](Cc1c[nH]c2ccccc12)C(=O)N[C@@H](CCCNC(=N)N)C(=O)NCC(=O)N[C@@H](CCCCN)C(=O)N[C@@H](CC(C)C)C(=O)N[C@@H](C)C(=O)N[C@@H](C)C(=O)N[C@@H](CC(C)C)C(=O)N[C@@H](CCCCN)C(=O)N[C@@H](C)C(=O)N[C@@H](CCCCN)C(=O)N[C@@H](CC(C)C)C(=O)N[C@@H](C)C(=O)N[C@@H](C)C(=O)N[C@@H](CC(C)C)C(=O)N[C@@H](CCCCN)C(=O)N[C@@H](C)C(=O)O`, “Active”; under `CSCC[C@H](NC(=O)[C@@H]1CCCN1C(=O)[C@H](CCC(N)=O)NC(=O)[C@H](CO)NC(=O)CNC(=O)[C@H](Cc1c[nH]c2ccccc12)NC(=O)CNC(=O)[C@H](CCC(=O)O)NC(=O)[C@H](CC(C)C)NC(=O)[C@H](C)NC(=O)[C@H](C)NC(=O)[C@H](CC(C)C)NC(=O)[C@H](CCC(=O)O)NC(=O)[C@H](C)NC(=O)[C@H](CCC(=O)O)NC(=O)[C@H](CC(C)C)NC(=O)[C@H](C)NC(=O)[C@H](C)NC(=O)[C@H](CC(C)C)NC(=O)[C@H](CCC(=O)O)NC(=O)[C@@H](C)N)C(=O)N[C@@H](CC(=O)O)C(=O)N[C@@H](CO)C(=O)N[C@H](C(=O)NCC(=O)N[C@@H](CCCCN)C(=O)N[C@@H](CC(C)C)C(=O)N[C@@H](C)C(=O)N[C@@H](C)C(=O)N[C@@H](CC(C)C)C(=O)N[C@@H](CCCCN)C(=O)N[C@@H](C)C(=O)N[C@@H](CCCCN)C(=O)N[C@@H](CC(C)C)C(=O)N[C@@H](C)C(=O)N[C@@H](C)C(=O)N[C@@H](CC(C)C)C(=O)N[C@@H](CCCCN)C(=O)N[C@@H](C)C(=O)O)C(C)C`, “Active”.
With `CC(C)C[C@H](NC(=O)[C@H](C)NC(=O)[C@H](C)NC(=O)[C@H](CC(C)C)NC(=O)[C@H](CCC(=O)O)NC(=O)[C@H](C)NC(=O)[C@H](CCC(=O)O)NC(=O)[C@H](CC(C)C)NC(=O)[C@H](C)NC(=O)[C@H](C)NC(=O)[C@H](CC(C)C)NC(=O)[C@H](CCC(=O)O)NC(=O)[C@H](C)N)C(=O)N[C@@H](CCC(=O)O)C(=O)NCC(=O)N[C@@H](CS)C(=O)N[C@H](C(=O)N[C@@H](CO)C(=O)N[C@H](C(=O)N[C@@H](Cc1ccc(O)cc1)C(=O)N[C@@H](CS)C(=O)N[C@H](C(=O)N[C@H](C(=O)N[C@@H](CO)C(=O)NCC(=O)N[C@@H](CCCCN)C(=O)N[C@@H](CC(C)C)C(=O)N[C@@H](C)C(=O)N[C@@H](C)C(=O)N[C@@H](CC(C)C)C(=O)N[C@@H](CCCCN)C(=O)N[C@@H](C)C(=O)N[C@@H](CCCCN)C(=O)N[C@@H](CC(C)C)C(=O)N[C@@H](C)C(=O)N[C@@H](C)C(=O)N[C@@H](CC(C)C)C(=O)N[C@@H](CCCCN)C(=O)N[C@@H](C)C(=O)O)C(C)C)[C@@H](C)O)C(C)C)[C@@H](C)O` (H-AELAALEAELAALEGCTSVYCTVSGKLAALKAKLAALKA-OH) the entry was “Active”; with “H-AELAALEAELAALEGAPCLVMTTAGKLAALKAKLAALKA-OH”, “Active”.
For “H-AELAALEAELAALEGARSLVAQMTGKLAALKAKLAALKA-OH”, the result was Active.
With “H-AELAALEAELAALEGDVAVAVRWDGKLAALKAKLAALKA-OH” the entry was “Active”.
With “H-AELAALEAELAALEGFPGRFGLFVGKLAALKAKLAALKA-OH” the entry was “Active”; with “H-AELAALEAELAALEGGKVAAWGFWGKLAALKAKLAALKA-OH”, “Active”.
With “H-AELAALEAELAALEGGLSEVHGLSGKLAALKAKLAALKA-OH”, the result was Active.
Under “H-AELAALEAELAALEGGSPRWYELLGKLAALKAKLAALKA-OH” stands “Active”; under “H-AELAALEAELAALEGGTKMWSLLVDGKLAALKAKLAALKA-OH”, “Active”.
